Drawing on PubChem BioAssay (NCI), this text covers TGI and GI50 for nine molecules.

Among the test systems are OVCAR-4 ovarian; RPMI-8226 leukemia; MDA-MB-435; CAKI-1 renal; NCI/ADR-RES ovarian; PC-3 prostate; HOP-92 NSCLC; U251 CNS; MALME-3M melanoma; SR leukemia.
Test in all cases: DTP human tumour cell line panel, 48 h

“And” between values parts separate entries of the source, which are not always exact repeats. Identical values can stand only once.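 How tested: cells in 96-well plates exposed to compound for 48 hours at five concentrations. Abbreviation: GI50, concentration required for 50% inhibition of growth. TGI marks complete inhibition of growth.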

The term TGI denotes the concentration giving total growth inhibition. `C=C1C(=O)OC2CC(C)C3CC(O)OC(OCC)C3(C)CC12` (centres undefined): the TGI with OVCAR-4 ovarian is 50.3 µM; with RPMI-8226 leukemia, 51 µM; in the experiment with MDA-MB-435, 37.6 µM; in the experiment on CAKI-1 renal it was 42.9 µM; in the experiment with NCI/ADR-RES ovarian, 39.2 µM; with PC-3 prostate, 45.9 µM. In addition, the TGI in the experiment with HOP-92 NSCLC was 35.1 µM; in the experiment with U251 CNS it was 33.8 µM; in the experiment with MALME-3M melanoma, 23.3 µM; in the experiment with SR leukemia, over 63.1 µM.

On to `c1ccc2c(c1)SCCCSCCSCCCS2`, for which the TGI with OVCAR-4 ovarian, in the experiment with MDA-MB-435, in the experiment on NCI/ADR-RES ovarian, with PC-3 prostate, with HOP-92 NSCLC and in the experiment with U251 CNS was over 100 µM in each case. In addition, the TGI with SR leukemia is over 100 µM.

For orientation: GI50 means the concentration that inhibits growth by half. On to `COc1ccc(C(O)c2cc3c(N)c(C(=O)Nc4cccc(Cl)c4)sc3nc2C)cc1` (centres undefined), for which the GI50 was 2.59 µM in the experiment on OVCAR-4 ovarian; 3.21 µM with RPMI-8226 leukemia; 0.0371 µM in the experiment on MDA-MB-435; 1.27 µM with CAKI-1 renal; 1.11 µM in the experiment on NCI/ADR-RES ovarian; 1.56 µM in the experiment on PC-3 prostate. Besides, the GI50 is 3.66 µM with HOP-92 NSCLC, 1.14 µM in the experiment with U251 CNS, 2.48 µM with MALME-3M melanoma and 0.339 µM in the experiment with SR leukemia. In addition, the total growth inhibition concentration (TGI) in the experiment with OVCAR-4 ovarian is over 51.7 µM; with RPMI-8226 leukemia, over 100 µM; with MDA-MB-435, 0.262 µM; in the experiment on CAKI-1 renal, over 39.4 µM; with NCI/ADR-RES ovarian it was over 36.1 µM; in the experiment with PC-3 prostate it was over 40.4 µM. For the same molecule, the TGI in the experiment with HOP-92 NSCLC was over 39.9 µM; with U251 CNS, over 37.8 µM; with MALME-3M melanoma it was over 73.4 µM.

Take `CCN(c1cc(-c2ccc(CN3CCOCC3)cc2)cc(C(=O)NCc2c(C)cc(C)[nH]c2=O)c1C)C1CCOCC1`: the GI50 is 25.9 µM with OVCAR-4 ovarian; 20 µM in the experiment on RPMI-8226 leukemia; 17.4 µM in the experiment on MDA-MB-435; 20.3 µM in the experiment on CAKI-1 renal; 36.2 µM in the experiment with NCI/ADR-RES ovarian; 32 µM with PC-3 prostate. The GI50 was 16.8 µM with HOP-92 NSCLC, 26 µM in the experiment on U251 CNS, 14.4 µM with MALME-3M melanoma and 21.7 µM in the experiment with SR leukemia. Further, the TGI in the experiment with OVCAR-4 ovarian was 97.2 µM; in the experiment with RPMI-8226 leukemia, over 59.8 µM; in the experiment with MDA-MB-435 it was 34.6 µM; in the experiment on CAKI-1 renal it was over 100 µM; in the experiment on NCI/ADR-RES ovarian, over 100 µM; in the experiment on PC-3 prostate it was over 100 µM. The TGI with HOP-92 NSCLC is over 57 µM; in the experiment on U251 CNS, over 81 µM; in the experiment on MALME-3M melanoma, 28.9 µM; in the experiment with SR leukemia, 58.2 µM.

As to `Cc1nc2ccc(NC(=O)CCNC(=O)CCCc3ccc(CC(C(=O)O)C(=O)O)cc3)cc2s1`, the GI50 with OVCAR-4 ovarian, in the experiment on RPMI-8226 leukemia, with MDA-MB-435, in the experiment on CAKI-1 renal, in the experiment on NCI/ADR-RES ovarian and in the experiment with PC-3 prostate was over 100 µM each time. The GI50 with HOP-92 NSCLC, with U251 CNS, in the experiment with MALME-3M melanoma and in the experiment on SR leukemia was over 100 µM in each case. Besides, the total growth inhibition concentration (TGI) in the experiment on OVCAR-4 ovarian, in the experiment with RPMI-8226 leukemia, with MDA-MB-435, in the experiment on CAKI-1 renal, in the experiment with NCI/ADR-RES ovarian and in the experiment with PC-3 prostate was over 100 µM throughout. The concentration for total growth inhibition (TGI) in the experiment on HOP-92 NSCLC, in the experiment on U251 CNS, in the experiment with MALME-3M melanoma and in the experiment with SR leukemia was over 100 µM in each case.

Regarding `COc1cc(NC(=O)CCSc2nc3ccc(C)cc3c(=O)n2Cc2ccccc2)cc(OC)c1OC`, the GI50 in the experiment on OVCAR-4 ovarian is 3.95 µM; with RPMI-8226 leukemia, over 100 µM; in the experiment with MDA-MB-435, over 100 µM; in the experiment with CAKI-1 renal, over 100 µM; in the experiment with NCI/ADR-RES ovarian, 9.25 µM; in the experiment on PC-3 prostate, 5.39 µM. The GI50 was 1.9 µM in the experiment with HOP-92 NSCLC, 7.06 µM in the experiment on U251 CNS, 4.73 µM with MALME-3M melanoma and over 100 µM in the experiment with SR leukemia. Besides, the TGI with OVCAR-4 ovarian, with RPMI-8226 leukemia, in the experiment on MDA-MB-435, with CAKI-1 renal, in the experiment with NCI/ADR-RES ovarian and in the experiment on PC-3 prostate was over 100 µM each time. Further, the TGI in the experiment on HOP-92 NSCLC was 7.99 µM; in the experiment with U251 CNS it was 63.1 µM; in the experiment on MALME-3M melanoma it was 43.4 µM; with SR leukemia, over 100 µM.

For the molecule `CN(C)CCSS(=O)(=O)O`, the total growth inhibition concentration (TGI) with OVCAR-4 ovarian, in the experiment with RPMI-8226 leukemia, in the experiment on MDA-MB-435, in the experiment on CAKI-1 renal, in the experiment on NCI/ADR-RES ovarian and in the experiment on PC-3 prostate was over 100 µM in each case. The TGI in the experiment on HOP-92 NSCLC, in the experiment with U251 CNS, in the experiment with MALME-3M melanoma and in the experiment on SR leukemia was over 100 µM each time.

For `CC(C)=CCC(OC(=O)C=C(C)C)C1=CC(=O)c2c(O)ccc(O)c2C1=O` (centres undefined), the GI50 with OVCAR-4 ovarian was 1.73 µM; with RPMI-8226 leukemia it was 0.724 µM; in the experiment on MDA-MB-435 it was 2.09 µM; with NCI/ADR-RES ovarian, 3.68 µM; in the experiment with PC-3 prostate, 1.55 µM; with HOP-92 NSCLC, 0.365 µM. The GI50 was 1.71 µM in the experiment on U251 CNS, 0.694 µM in the experiment on MALME-3M melanoma and 0.123 µM in the experiment on SR leukemia. Further, the TGI in the experiment on OVCAR-4 ovarian was 4.16 µM and 1.48 µM; in the experiment with MDA-MB-435 it was 4.77 µM; in the experiment with CAKI-1 renal, 3.12 µM and 2 µM; in the experiment with NCI/ADR-RES ovarian, 29.5 µM and 3.16 µM; in the experiment on PC-3 prostate, 8.74 µM; in the experiment with HOP-92 NSCLC it was 1.38 µM and 1.29 µM. Further, the TGI was 3.61 µM and 9.1 µM in the experiment on U251 CNS; 3.09 µM and 1.07 µM in the experiment with MALME-3M melanoma; over 100 µM in the experiment with SR leukemia.

Take `Cc1nc2c(n1C)C(=O)c1ccccc1C2=O`: the GI50 in the experiment with OVCAR-4 ovarian was 43.5 µM; with RPMI-8226 leukemia, over 100 µM; with MDA-MB-435 it was 48.1 µM; in the experiment with CAKI-1 renal, 29.4 µM; in the experiment with NCI/ADR-RES ovarian, 81.7 µM; with PC-3 prostate, 63.9 µM. For the same molecule, the GI50 in the experiment on HOP-92 NSCLC is over 100 µM; with U251 CNS, 63.9 µM; in the experiment on MALME-3M melanoma, 4.74 µM; in the experiment on SR leukemia, 48.9 µM. Moreover, the TGI with OVCAR-4 ovarian, in the experiment with RPMI-8226 leukemia, with MDA-MB-435, in the experiment with CAKI-1 renal, in the experiment with NCI/ADR-RES ovarian and with PC-3 prostate was over 100 µM each time. Further, the total growth inhibition concentration (TGI) was over 100 µM with HOP-92 NSCLC, over 100 µM with U251 CNS, 28.5 µM in the experiment with MALME-3M melanoma and over 100 µM with SR leukemia.
